In ChEMBL document CHEMBL6177983, “PSMA-Guided PROTAC Degraders for Tumor-Specific Protein Degradation in Prostate Cancer” (J Med Chem, 2025):
Calls of active or inactive are those of the source. The rule behind the calls is not given here.

Legend:
[1] = target: T1, von Hippel-Lindau disease tumor suppressor/Androgen receptor (Homo sapiens, UniProt P10275+P40337); test: In vivo PROTAC activity at AR/VHL in BALB/c mouse xenografted with human LNCaP cells assessed as reduction in AR level in tumor at 1 mmol/L, iv measured at 72 hrs by Western blot analysis; format: functional, organism-based
[2] = target: T1, von Hippel-Lindau disease tumor suppressor/Androgen receptor; test: In vivo PROTAC activity at AR/VHL in BALB/c mouse xenografted with human LNCaP cells assessed as reduction in AR level in tumor at 1 mmol/L, iv measured at 48 hrs by Western blot analysis; format: functional, organism-based
LNCaP [3] = test: animal or person; details: Mus musculus, po, 504 h, read-out: TGI
Description: Antitumor activity against human LNCaP cells xenografted in BALB/c mouse assessed as tumor growth inhibition at 10 mg/kg, po administered every day for 21 days

CWR22R = test: Cytotoxicity against human 22Rv1 cells assessed as cell viability incubated for 72 hrs by CCK-8 assay; format: functional, cell-based
LNCaP [4] = test: Cytotoxicity against human LNCaP cells assessed as cell viability incubated for 72 hrs by CCK-8 assay; format: functional, cell-based
VCaP = test: Cytotoxicity against human VCaP cells assessed as cell viability incubated for 72 hrs by CCK-8 assay; format: functional, cell-based
HEK-293T = test: Cytotoxicity against HEK293T cells assessed as cell viability incubated for 72 hrs by CCK-8 assay; format: toxicity, cell-based; details: human
J82 = test: Cytotoxicity against human J82 cells assessed as cell viability incubated for 72 hrs by CCK-8 assay; format: functional, cell-based
Mus musculus = test: In vivo PROTAC activity at BRD4/VHL in BALB/c mouse xenografted with human LNCaP cells assessed as reduction in AR level in tumor at 1 mmol/L, iv measured for 3 days by Western blot analysis; format: functional, organism-based; details: time 3.0 day
DU-145 = test: Cytotoxicity against human DU-145 cells assessed as cell viability incubated for 72 hrs by CCK-8 assay; format: functional, cell-based
LNCaP [5] = test: Antitumor activity against human LNCaP cells xenografted in BALB/c mouse assessed as tumor growth inhibition at 0.51 mmol/L, iv administered every day for 21 days; format: functional; details: 504 h, time 21 day, read-out: TGI
LNCaP [6] = test: Antitumor activity against human LNCaP cells xenografted in BALB/c mouse assessed as tumor growth inhibition at 1.02 mmol/L, iv administered every day for 21 days; format: functional; details: 504 h, time 21 day, read-out: TGI

T1 sequence (P10275 whole entry, looked up): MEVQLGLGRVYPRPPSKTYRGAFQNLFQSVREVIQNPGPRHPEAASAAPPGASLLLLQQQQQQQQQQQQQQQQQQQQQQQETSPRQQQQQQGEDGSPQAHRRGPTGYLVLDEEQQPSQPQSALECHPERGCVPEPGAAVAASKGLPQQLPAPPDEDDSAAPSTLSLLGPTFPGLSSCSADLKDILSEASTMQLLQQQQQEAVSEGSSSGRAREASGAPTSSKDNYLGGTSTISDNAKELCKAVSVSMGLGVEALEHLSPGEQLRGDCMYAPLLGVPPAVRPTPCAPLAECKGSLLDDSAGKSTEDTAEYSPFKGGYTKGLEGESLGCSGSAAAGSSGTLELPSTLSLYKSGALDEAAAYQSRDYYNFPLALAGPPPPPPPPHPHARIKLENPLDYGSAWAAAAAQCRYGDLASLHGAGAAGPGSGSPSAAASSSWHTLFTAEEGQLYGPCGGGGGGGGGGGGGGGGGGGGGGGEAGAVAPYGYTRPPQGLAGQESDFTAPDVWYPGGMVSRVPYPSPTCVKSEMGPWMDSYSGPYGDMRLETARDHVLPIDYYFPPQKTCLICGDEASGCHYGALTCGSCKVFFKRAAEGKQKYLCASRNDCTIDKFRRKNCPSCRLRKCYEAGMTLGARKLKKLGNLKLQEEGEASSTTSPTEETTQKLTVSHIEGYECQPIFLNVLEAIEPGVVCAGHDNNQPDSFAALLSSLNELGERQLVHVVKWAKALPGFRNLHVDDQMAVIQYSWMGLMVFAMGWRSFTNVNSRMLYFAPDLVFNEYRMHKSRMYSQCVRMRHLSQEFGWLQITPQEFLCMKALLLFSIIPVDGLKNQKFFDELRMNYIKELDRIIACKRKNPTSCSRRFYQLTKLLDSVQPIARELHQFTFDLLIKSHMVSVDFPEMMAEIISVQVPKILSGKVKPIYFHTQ
T1 sequence (P40337 whole entry, looked up): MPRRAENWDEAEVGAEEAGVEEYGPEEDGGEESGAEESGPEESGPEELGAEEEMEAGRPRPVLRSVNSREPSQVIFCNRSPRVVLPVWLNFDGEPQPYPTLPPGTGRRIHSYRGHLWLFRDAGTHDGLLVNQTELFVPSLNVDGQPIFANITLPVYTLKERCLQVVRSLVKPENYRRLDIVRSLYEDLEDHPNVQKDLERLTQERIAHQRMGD

With `Cc1ncsc1-c1ccc(CNC(=O)[C@@H]2C[C@@H](O)CN2C(=O)[C@@H](NC(=O)CCCCCCCCCNC(=O)c2ccc(C(=O)N[C@H]3C(C)(C)[C@H](Oc4ccc(C#N)c(Cl)c4)C3(C)C)cc2)C(C)(C)C)cc1` as the compound, how does the Activity [1] read?
The Activity was “Active”.

What about the Activity [2] of the same compound?
The Activity was “Active”.

How did the inhibition in vivo at 10 mg/kg (LNCaP [3]) turn out when `CNC(=O)c1ccc(N2C(=S)N(c3ccc(C#N)c(C(F)(F)F)c3)C(=O)C2(C)C)cc1F` [ENZALUTAMIDE] was run?
Its inhibition in vivo at 10 mg/kg is 59.5%.

For `Cc1ncsc1-c1ccc([C@H](C)NC(=O)[C@@H]2C[C@@H](O)CN2C(=O)[C@@H](NC(=O)COCCCOCCNC(=O)C[C@@H]2N=C(c3ccc(Cl)cc3)c3c(sc(C)c3C)-n3c(C)nnc32)C(C)(C)C)cc1`, which Activity (CWR22R) is on record?
The Activity was “Active”.

And the Activity (LNCaP [4])?
The Activity was “Active”.

And the Activity (VCaP)?
Its Activity is “Active”.

And the Activity (HEK-293T)?
The Activity was “Toxic”.

And the Activity (J82)?
Its Activity is “Active”.

What about the Activity (Mus musculus) of the same compound?
The Activity was “Active”.

And the Activity (DU-145)?
The Activity was “Active”.

And the inhibition in vivo at 510 µM (LNCaP [5])?
The inhibition in vivo at 510 µM was 56.2%.

What about the inhibition in vivo at 1020 µM (LNCaP [6]) of the same compound?
Its inhibition in vivo at 1020 µM is 65.2%.
